How the values were obtained:
[1] = test system: HepG-2; test: Anti-proliferative activity, SRB colorimetric assay; assay type: cell-based; conditions: for IC50: Homo sapiens, HepG2, HepG-2 cancer cell line, SRB assay, read-out: Cell lines (IC50 μM) HepG-2; for anti-proliferative activity against HepG-2, in words: authors' grading of Table 1 values, key not given
[2] = test system: MCF-7; test: as above; assay type: cell-based; conditions: for IC50: Homo sapiens, MCF7, MCF-7 cancer cell line, SRB assay, read-out: Cell lines (IC50 μM) MCF-7; for anti-proliferative activity against MCF-7, in words: authors' grading of Table 1 values, key not given
[3] = test system: S. aureus; test: Antibacterial activity, inhibition zone approach; assay type: cell-based, Staphylococcus aureus; conditions: for S. aureus Diameter of inhibition zone (mm): Gram-positive bacteria; for antimicrobial activity with S. aureus, in words: authors' grading of Table 2 values, key not given; for S. aureus % Activity index: gentamicin = 100
[4] = test system: B. subtilis; test: Antibacterial activity, inhibition zone approach; assay type: cell-based, Bacillus subtilis; conditions: for B. subtilis Diameter of inhibition zone (mm): Gram-positive bacteria; for antimicrobial activity with B. subtilis, in words: authors' grading of Table 2 values, key not given; for B. subtilis % Activity index: gentamicin = 100
[5] = test system: E. coli; test: Antibacterial activity, inhibition zone approach; assay type: cell-based, Escherichia coli; conditions: for E. coli Diameter of inhibition zone (mm): Gram-negative bacteria; for antimicrobial activity with E. coli, in words: authors' grading of Table 2 values, key not given; for E. coli % Activity index: gentamicin = 100
[6] = test system: P. aeuroginosa; test: Antibacterial activity, inhibition zone approach; assay type: cell-based, Pseudomonas aeuroginosa; conditions: for P. aeuroginosa Diameter of inhibition zone (mm): Gram-negative bacteria; for antimicrobial activity with P. aeuroginosa, in words: authors' grading of Table 2 values, key not given; for P. aeuroginosa % Activity index: gentamicin = 100
[7] = test system: C. albicans; test: Antifungal activity, inhibition zone approach; assay type: cell-based, Candida albicans; conditions: for C. albicans Diameter of inhibition zone (mm): Fungi; for antimicrobial activity with C. albicans, in words: authors' grading of Table 2 values, key not given; for C. albicans % Activity index: ketoconazole = 100
[8] = test system: A. flavus; test: Antifungal activity, inhibition zone approach; assay type: cell-based, Aspergillus flavus; conditions: for A. flavus Diameter of inhibition zone (mm): Fungi; for antimicrobial activity with A. flavus, in words: authors' grading of Table 2 values, key not given; for A. flavus % Activity index: ketoconazole = 100

| SMILES | IC50 [1] [µM] | anti-proliferative activity against HepG-2, in words [1] | IC50 [2] [µM] | anti-proliferative activity against MCF-7, in words [2] | S. aureus Diameter of inhibition zone (mm) [3] [mm] | antimicrobial activity with S. aureus, in words [3] | S. aureus % Activity index [3] [%] | B. subtilis Diameter of inhibition zone (mm) [4] [mm] | antimicrobial activity with B. subtilis, in words [4] | B. subtilis % Activity index [4] [%] | E. coli Diameter of inhibition zone (mm) [5] [mm] | antimicrobial activity with E. coli, in words [5] | E. coli % Activity index [5] [%] | P. aeuroginosa Diameter of inhibition zone (mm) [6] [mm] | P. aeuroginosa % Activity index [6] [%] | C. albicans Diameter of inhibition zone (mm) [7] [mm] | C. albicans % Activity index [7] [%] | A. flavus Diameter of inhibition zone (mm) [8] [mm] | A. flavus % Activity index [8] [%] | melting point [°C] | other results |
| --- | --- | --- | --- | --- | --- | --- | --- | --- | --- | --- | --- | --- | --- | --- | --- | --- | --- | --- | --- | --- | --- |
| NS(=O)(=O)c1ccc(NC(=O)CN2N=C(c3ccc(O)cc3)CC2c2cccs2)cc1 (centres unmarked) [16a, 2-(3-(4-hydroxyphenyl)-5-(thiophen-2-yl)-4,5-dihydro-1H-pyrazol-1-yl)-N-(4-sulfamoylphenyl)acetamide] | 34.5 ± 2.2 | moderate | 29.1 ± 2 | moderate | 8 | moderate | 44.4 | 11 | moderate | 50.0 | 7 | weak | 33.3 | 11 | 57.9 | 15 | 53.6 | 12 | 46.1 | 158 to 160 | antimicrobial activity with P. aeuroginosa, in words [6]: moderate; antimicrobial activity with C. albicans, in words [7]: moderate; antimicrobial activity with A. flavus, in words [8]: moderate |
| O=C(O)CSC(=S)N1N=C(c2ccc(O)cc2)CC1c1cccs1 (centres unmarked) [19a, 2-((3-(4-Hydroxyphenyl)-5-(thiophen-2-yl)-4,5-dihydro-1H-pyrazole-1-carbonothioyl)thio)acetic acid] | 28.2 ± 1.9 | moderate | 14.7 ± 1.2 | strong | 10 | moderate | 55.5 | 14 | moderate | 63.6 | 9 | moderate | 42.8 | 12 | 63.1 | 16 | 57.1 | 13 | 50.0 | 223 to 225 | antimicrobial activity with P. aeuroginosa, in words [6]: moderate; antimicrobial activity with C. albicans, in words [7]: moderate; antimicrobial activity with A. flavus, in words [8]: moderate |
| CC(=O)c1c(-c2cccs2)cc(-c2ccc(O)cc2)[nH]c1=O [3a, 3-Acetyl-6-(4-hydroxyphenyl)-4-(thiophen-2-yl)pyridin-2(1H)-one] | 53.2 ± 3.1 | moderate | 48.4 ± 2.7 | moderate | 5 |  | 27.8 | 9 |  | 40.9 | 4 |  | 19.0 | 6 | 31.6 | 11 | 39.3 | 10 | 38.5 | 220 |  |
| NC(=S)n1nc(-c2ccc(O)cc2)cc1-c1cccs1 [10a, 3-(4-hydroxyphenyl)-5-(thiophen-2-yl)-1H-pyrazole-1-carbothioamide] | 39.1 ± 2.4 | moderate | 23.7 ± 1.7 | moderate | 9 | moderate | 50.0 | 13 | moderate | 59.1 | 8 | moderate | 38.1 | 12 | 63.1 | 13 | 46.4 | 11 | 42.3 | 195 to 197 | antimicrobial activity with P. aeuroginosa, in words [6]: moderate; antimicrobial activity with C. albicans, in words [7]: moderate; antimicrobial activity with A. flavus, in words [8]: moderate |
| O=C(CNC(=S)n1nc(-c2ccc(Cl)c(Cl)c2)cc1-c1cccs1)c1ccccc1 [12b, 3-(3,4-dichlorophenyl)-N-(2-oxo-2-phenylethyl)-5-(thiophen-2-yl)-1H-pyrazole-1-carbothioamide] | 29.2 ± 2.1 |  | 36 ± 2.3 |  | 7 |  | 38.9 | 12 |  | 54.5 | 5 |  | 23.8 | 8 | 42.1 | 15 | 53.6 | 10 | 38.5 | 160 |  |
| CC(=O)N1N=C(c2ccc(Cl)c(Cl)c2)CC1c1cccs1 (centres unmarked) [8b, 1-(3-(3,4-dichlorophenyl)-5-(thiophen-2-yl)-4,5-dihydro-1H-pyrazol-1-yl)ethan-1-one] | 74.3 ± 3.5 |  | 72.6 ± 3.9 |  | 3 |  | 16.7 | 7 |  | 31.8 |  |  |  | 4 | 21.0 | 9 | 32.1 | 5 | 19.2 | 160 |  |
| Clc1ccc(C2=NN(c3ccccc3)C(c3cccs3)C2)cc1Cl (centres unmarked) [9b, 3-(3,4-dichlorophenyl)-1-phenyl-5-(thiophen-2-yl)-4,5-dihydro-1H-pyrazole] | 48.1 ± 2.7 |  | 67.3 ± 3.7 |  |  |  |  | 6 |  | 27.3 |  |  |  |  |  | 8 | 28.6 | 3 | 11.5 | 130 |  |
| N#Cc1c(-c2cccs2)cc(-c2ccc(O)cc2)nc1O [5a, 2-hydroxy-6-(4-hydroxyphenyl)-4-(thiophen-2-yl)nicotinonitrile] | 43 ± 2.5 | moderate | 38.4 ± 2.5 | moderate | 6 |  | 33.3 | 10 |  | 45.4 | 5 |  | 23.8 | 10 | 52.6 | 14 | 50.0 | 8 | 30.8 | 200 |  |
| O=C(CCl)SC(=S)N1N=C(c2ccc(O)cc2)CC1c1cccs1 (centres unmarked) [20a, 2-Chloroacetic-3-(4-hydroxyphenyl)-5-(thiophen-2-yl)-4,5-dihydro-1H-pyrazole-1-carbothioic thioanhydride] | 67.4 ± 3.5 | weak | 56.2 ± 3.3 | weak | 3 | weak | 16.7 | 6 | weak | 27.3 |  | weak |  | 4 | 21.0 | 9 | 32.1 | 7 | 26.9 | 265 | antimicrobial activity with P. aeuroginosa, in words [6]: weak; antimicrobial activity with C. albicans, in words [7]: weak; antimicrobial activity with A. flavus, in words [8]: weak |
| Oc1ccc(-c2cc(-c3cccs3)nc(/N=C/c3ccccc3O)n2)cc1 [13a, (E)-2-(((4-(4-hydroxyphenyl)-6-(thiophen-2-yl)pyrimidin-2-yl)imino)methyl)phenol] | 34.8 ± 2.3 |  | 42.8 ± 2.6 |  | 14 | very strong | 77.8 | 18 | very strong | 81.8 | 13 | very strong | 61.9 | 15 | 78.9 | 21 | 75.0 | 16 | 61.5 | 133 to 135 | antimicrobial activity with P. aeuroginosa, in words [6]: very strong; antimicrobial activity with C. albicans, in words [7]: very strong; antimicrobial activity with A. flavus, in words [8]: very strong |
